Assay results as given in patent US20050288323A1, “Octahydro-indolizine and quinolizine and hexahydro-pyrrolizine” (priority 2000, published 2005).
pKi: −log10 of the molar value.

Molecular target: T1, human histamine H3 receptor (Homo sapiens, UniProt Q9Y5N1)
T1 construct: One microgram of supercoiled H3 receptor cDNA was added to the cells and mixed; expressed in transfected cells; membranes
Assay: [3H]-N-methylhistamine binding
Settings: Table 1; [3H]-N-methylhistamine binding
Summary of the method: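 Membranes from SK-N-MC cells stably transfected with human H3 receptor, incubated 45 min at 25° C. with 0.8 nM [3H]-N-methylhistamine in Tris/EDTA pH 7.4. Filtration and scintillation counting; 10 μM histamine defined non-specific binding. Ki from IC50 via Cheng-Prusoff (Kd 800 pM, [L] 800 pM).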

T1 sequence (Q9Y5N1 whole entry): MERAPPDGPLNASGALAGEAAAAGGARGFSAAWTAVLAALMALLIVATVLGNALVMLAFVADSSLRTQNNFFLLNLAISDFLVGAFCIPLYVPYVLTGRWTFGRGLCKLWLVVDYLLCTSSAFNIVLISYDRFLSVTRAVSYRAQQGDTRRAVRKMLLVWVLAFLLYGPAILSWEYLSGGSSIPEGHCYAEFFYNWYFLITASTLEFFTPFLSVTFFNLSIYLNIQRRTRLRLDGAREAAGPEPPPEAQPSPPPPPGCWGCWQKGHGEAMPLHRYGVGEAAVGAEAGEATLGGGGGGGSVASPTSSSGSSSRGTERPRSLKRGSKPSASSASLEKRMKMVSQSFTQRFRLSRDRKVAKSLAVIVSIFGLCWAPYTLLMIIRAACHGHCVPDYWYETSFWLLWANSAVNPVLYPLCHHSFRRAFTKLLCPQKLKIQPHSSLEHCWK

| Structure (SMILES) | pKi |
| --- | --- |
| Brc1ccc([C@@H]2CC[C@H]3CCCCN32)cc1 (racemic) [Example 2] | 6.00 |

Same assay, conditions: Table 2; [3H]-N-methylhistamine binding

| Structure (SMILES) | pKi |
| --- | --- |
| c1ccc(Sc2ccc([C@H]3CC[C@H]4CCCCN43)cc2)nc1 (racemic) [Example 28] | 6.69 |
| c1cncc(Oc2ccc([C@H]3CC[C@H]4CCCCN43)cc2)c1 (racemic) [Example 29] | 6.82 |
| c1ccc2[nH]c(Oc3ccc([C@H]4CC[C@H]5CCCCN54)cc3)nc2c1 (racemic) [Example 30] | 6.31 |

Same assay, conditions: Table 5; [3H]-N-methylhistamine binding

| Structure (SMILES) | pKi |
| --- | --- |
| c1cc(CNc2ccc([C@H]3CC[C@H]4CCCCN43)cc2)cs1 (racemic) [Example 129] | 6.19 |

Same assay, conditions: [3H]-N-methylhistamine 0.8 nM, membranes of H3 receptor-expressing SK-N-MC cells

| pKi | Structure (SMILES) |
| --- | --- |
| 7.12 | CS(=O)(=O)Nc1ccc(Sc2ccc([C@@H]3CCC[C@@H]4CCCN43)cc2)cc1 (racemic) [Example 41, 5-[4-(4-Methanesulfonaminophenylthio)phenyl]octahydroindolizine] |
| 9.15 | c1cc([C@@H]2CCC[C@@H]3CCCN32)ccc1OCCCN1CCCCC1 (racemic) [Example 64, 5-[4-(3-Piperidinylpropoxy)phenyl]octahydroindolizine] |
| 7.15 | O=C(N1CCCCC1CCOc1ccc([C@H]2CC[C@H]3CCCCN32)cc1)C(F)(F)F (mixture of isomers) [Example 88, trans-3-{4-[2,2′-(N-Trifluoroacetylpiperidinyl)ethoxy]phenyl}octahydroindolizine] |
| 6.49 | C=CC(=O)Nc1ccc([C@@H]2CC[C@@H]3CCCCN32)cc1 (relative stereo) [Example 107, N-[4-(trans-Octahydro-3-indolizinyl)phenyl]propenamide] |
| 6.56 | ClCCCCOc1ccc([C@@H]2CCC[C@@H]3CCCN32)cc1 (racemic) [Example 61, 5-[4-(4-Chlorobutanoxy)phenyl]octahydroindolizine] |
| 6.48 | N=C1NC(=N)/C(=C/c2ccc([C@H]3CC[C@H]4CCCCN43)cc2)S1 (relative stereo) [Example 46, trans-3-[4-(4-Methylene-1,3-thiazolidine-2,4-diimine)phenyl]octahydroindolizine] |
| 7.29 | CC(C)(C)OC(=O)N1CCCCC1CCOc1ccc([C@H]2CC[C@H]3CCCCN32)cc1 (mixture of isomers) [Example 85, trans-3-{4-[2,2′-(1-tert-Butylcarboxylatepiperidinyl)ethoxy]phenyl}-octahydroindolizine] |

The remaining lines, values behind:

| Structure (SMILES) | pKi |
| --- | --- |
| c1cc([C@@H]2CC[C@@H]3CCCCN32)ccc1NCCCCCN1CCCCC1 (relative stereo) [Example 115, trans-3-[4-(N-5-Piperidylpentylamino)phenyl]octahydroindolizine] | 9.15 |
| CN(c1ccc([C@@H]2CC[C@@H]3CCCCN32)cc1)S(=O)(=O)C1CCCNC1 (relative stereo) [Example 118, trans-3-[4-(3-Piperidylsulfonyl-N-methylamino)phenyl]octahydroindolizine] | 7.21 |
| C(=C\c1ccc([C@H]2CC[C@H]3CCCCN32)cc1)/c1ccncc1 (racemic) [Example 73, trans-3-[4-(4-Pyridinylethenyl)phenyl]octahydroindolizine] | 7.19 |
| O=Cc1ccc([C@H]2CC[C@H]3CCCCN32)cc1 (racemic) [trans-3-(4-Formylphenyl)octahydroindolizine] | 6.23 |

Tested on: not given
Assay: not given
Settings: not given

| Structure (SMILES) | melting point [°C] |
| --- | --- |
| Brc1cccc([C@H]2CC[C@H]3CCCCN32)c1 (racemic) | 195 to 198 |
